Experimental data from patent publication US20220296595A1, “CDK INHIBITORS” (QILU REGOR THERAPEUTICS INC., priority 2019, published 2022).
Like-named read-outs stand apart in the source and are kept apart here.

Experiments:
[1] = target: T1, CDK4/CyclinD1 (Homo sapiens, UniProt P11802); experiment: Assay for inhibition of CDK4/CyclinD1 (Caliper microfluidic kinase assay); format: biochemical
T1 construct: purchased Thermofisher PR8064A
Protocol: The CDK4 enzyme assay for IC50 determination was performed as follows. Microfluidic kinase detection technology (Caliper) was used to monitor the phosphorylation of peptide substrate by CDK4/CyclinD1. The total reaction volume was 15 μL containing buffer A (100 mM HEPES (pH 7.5), 0.1% BSA, 0.01% Triton X-100, 1 mM DTT, 10 mM MgCl2, 10 μM Sodium Orthovanadate, 10 μM Beta-Glycerophosphate), 200 μM ATP, 1 nM CDK4/CyclinD1 (Thermofisher, PR8064A), 1 μM FL-34 (5-FAM-[…]), and the test compound at appropriate dilutions in DMSO. All components were added to the 384-well plate (Corning, 4514), and incubated at Room Temperature for 3 hours. The reaction was terminated by addition of 15 μL Stop Buffer (180 mM HEPES (pH 7.5), 20 mM EDTA, Coating-3 reagent (PerkinElmer, 760050)). The plate was then loaded on Caliper EZ Reader (EZ Reader II, PerkinElmer, HD-4HYSG2772), and the reaction mixtures including substrate and product were sipped into the microfluidic chip for separation and detection. The IC50 values of the test compound were determined by fitting the inhibition curves by 4 parameter sigmoidal dose-response model using the Xlfit5/GraphPad Prism 5 software.

[2] = target: T2, CDK2/CyclinE1 (Homo sapiens, UniProt P24941); experiment: Assay for inhibition of CDK2/CyclinE1 (Caliper microfluidic kinase assay); format: biochemical; conditions: read-out: CDK2 IC50
T2 construct: purchased SignalChem C29-18G
Protocol: The CDK2 enzyme assay for IC50 determination was performed as follows. Microfluidic kinase detection technology (Caliper) was used to monitor the phosphorylation of peptide substrate by CDK2/CyclinE1. The total reaction volume was 15 μL containing buffer A (100 mM HEPES (pH 7.5), 0.1% BSA, 0.01% Triton X-100, 1 mM DTT, 10 mM MgCl2, 10 μM Sodium Orthovanadate, 10 μM Beta-Glycerophosphate), 100 μM ATP, 5 nM CDK2/CyclinE1 (SignalChem, C29-18G), 5 μM FL-18 (5-FAM-QSPKKG-NH2), and the test compound at appropriate dilutions in DMSO. All components were added to the 384-well plate (Corning, 4514), and incubate at Room Temperature for 3 hours. The reaction was terminated by addition of 15 μL Stop Buffer (180 mM HEPES (pH 7.5), 20 mM EDTA, Coating-3 reagent (PerkinElmer, 760050)). The plate was loaded on Caliper EZ Reader (EZ Reader II, PerkinElmer, HD-4HYSG2772), and the reaction mixtures including substrate and product were sipped into the microfluidic chip for separation and detection. The IC50 values of the test compound were determined by fitting the inhibition curves by 4 parameter sigmoidal dose-response model using the Xlfit5/GraphPad Prism 5 software.

T1 sequence (P11802 whole entry): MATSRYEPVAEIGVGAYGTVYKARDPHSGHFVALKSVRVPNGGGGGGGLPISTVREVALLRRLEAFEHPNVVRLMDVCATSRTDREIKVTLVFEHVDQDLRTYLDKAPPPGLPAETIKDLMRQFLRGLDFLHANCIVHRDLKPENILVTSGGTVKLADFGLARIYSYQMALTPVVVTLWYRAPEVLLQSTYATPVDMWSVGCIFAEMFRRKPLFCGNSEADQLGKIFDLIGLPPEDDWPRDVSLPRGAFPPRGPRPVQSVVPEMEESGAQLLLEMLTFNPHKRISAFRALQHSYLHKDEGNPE
T1 sequence (P24385 whole entry partner): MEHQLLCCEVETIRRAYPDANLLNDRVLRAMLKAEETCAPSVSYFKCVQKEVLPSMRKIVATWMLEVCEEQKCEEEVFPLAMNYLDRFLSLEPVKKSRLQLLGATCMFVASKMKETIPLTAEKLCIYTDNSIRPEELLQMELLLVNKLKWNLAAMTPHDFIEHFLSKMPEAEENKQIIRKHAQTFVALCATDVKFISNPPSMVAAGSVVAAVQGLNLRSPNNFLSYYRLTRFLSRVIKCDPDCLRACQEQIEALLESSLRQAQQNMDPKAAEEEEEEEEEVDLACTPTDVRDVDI

Structure (SMILES): CC(C)c1cnc2cnc(-c3ccnc(Nc4ccc(N5CCNCC5=O)cn4)n3)cn12 [Synthetic Example 143]
- IC50 ([1]; CDK4/CyclinD1, 200 μM ATP): 10 to 100 nM
- IC50 ([2]; CDK2/CyclinE1, 100 μM ATP): > 1000 nM

Structure (SMILES): COc1nc(-c2nc(Nc3ccc(N4CCOCC4=O)cn3)ncc2F)cc2c1nc(C)n2C1CCCC1O (centres unmarked) [compound 71]
- IC50 ([1]; CDK4/CyclinD1): 10 to 100 nM
- IC50 ([2]; CDK2/CyclinE1): > 1000 nM

Structure (SMILES): COc1nc(-c2nc(Nc3ccc(N4CCOCC4=O)cn3)ncc2F)cc2c1nc(C)n2C(C)CO (centres unmarked) [compound 72]
- IC50 ([1]; CDK4/CyclinD1): 10 to 100 nM
- IC50 ([2]; CDK2/CyclinE1): > 1000 nM

Structure (SMILES): COc1nc(-c2nc(Nc3ccc(N4CCOC4=O)cn3)ncc2F)cc2c1nc(C)n2C(C)C [compound 85]
- IC50 ([1]; CDK4/CyclinD1): 10 to 100 nM
- IC50 ([2]; CDK2/CyclinE1): > 1000 nM

Structure (SMILES): CCN1CCN(c2ccc(Nc3ncc(F)c(-c4cc5c(nc(C)n5C(C)C)c(OC)n4)n3)nc2)C1=O [compound 89]
- IC50 ([1]; CDK4/CyclinD1): 10 to 100 nM
- IC50 ([2]; CDK2/CyclinE1): > 1000 nM

Structure (SMILES): COc1nc(-c2nc(Nc3ccc(N4CCC5(CCNC5=O)CC4)cn3)ncc2F)cc2c1nc(C)n2C(C)C [compound 90]
- IC50 ([1]; CDK4/CyclinD1): 10 to 100 nM
- IC50 ([2]; CDK2/CyclinE1): > 1000 nM

Structure (SMILES): COc1nc(-c2nc(Nc3ccc(N4CCOCC4C)cn3)ncc2F)cc2c1nc(C)n2C(C)C (centres unmarked) [compound 97]
- IC50 ([1]; CDK4/CyclinD1): 10 to 100 nM
- IC50 ([2]; CDK2/CyclinE1): > 1000 nM

Structure (SMILES): CCN1CCN(c2ccc(Nc3ncc(F)c(-c4cc5c(nc(C)n5C(C)C)c(OC)n4)n3)nc2)CC1=O [compound 105]
- IC50 ([1]; CDK4/CyclinD1): 10 to 100 nM
- IC50 ([2]; CDK2/CyclinE1): > 1000 nM

Structure (SMILES): COc1nc(-c2ccnc(Nc3ccn(CC4CCNCC4)n3)n2)cc2c1ncn2C(C)C [compound 108]
- IC50 ([1]; CDK4/CyclinD1, 200 μM ATP): 10 to 100 nM
- IC50 ([2]; CDK2/CyclinE1, 100 μM ATP): > 1000 nM

Structure (SMILES): COc1nc(-c2nc(Nc3ccc(N4CCNC5(CC5)C4)cn3)ncc2F)cc2c1nc(C)n2C(C)C [compound 110]
- IC50 ([1]; CDK4/CyclinD1, 200 μM ATP): 10 to 100 nM
- IC50 ([2]; CDK2/CyclinE1, 100 μM ATP): > 1000 nM

Structure (SMILES): COc1nc(-c2nc(Nc3ccc(C(=O)N4CCC(N)CC4)c(C)n3)ncc2F)cc2c1nc(C)n2C(C)C [compound 120]
- IC50 ([1]; CDK4/CyclinD1, 200 μM ATP): 10 to 100 nM
- IC50 ([2]; CDK2/CyclinE1, 100 μM ATP): > 1000 nM

Structure (SMILES): COc1nc(-c2ccnc(Nc3ccc4c(n3)CCN(C(=O)CO)C4)n2)cc2c1ncn2C(C)C [compound 141]
- IC50 ([1]; CDK4/CyclinD1, 200 μM ATP): 10 to 100 nM
- IC50 ([2]; CDK2/CyclinE1, 100 μM ATP): > 1000 nM

Structure (SMILES): COc1nc(-c2ccnc(Nc3ccc4c(n3)CCN(C(=O)CC#N)C4)n2)cc2c1ncn2C(C)C [compound 142]
- IC50 ([1]; CDK4/CyclinD1, 200 μM ATP): 10 to 100 nM
- IC50 ([2]; CDK2/CyclinE1, 100 μM ATP): > 1000 nM

Structure (SMILES): CC(C)c1cnn2ccc(-c3ccnc(Nc4ccc(C(=O)N5CCC(N(C)C)CC5)cc4)n3)cc12 [compound 148]
- IC50 ([1]; CDK4/CyclinD1, 200 μM ATP): < 10 nM
- IC50 ([2]; CDK2/CyclinE1, 100 μM ATP): < 10 nM

Structure (SMILES): CC(C)c1cnn2ccc(-c3ccnc(Nc4ccc(C(=O)N5CCC(O)CC5)cc4)n3)cc12 [compound 149]
- IC50 ([1]; CDK4/CyclinD1, 200 μM ATP): 10 to 100 nM
- IC50 ([2]; CDK2/CyclinE1, 100 μM ATP): < 10 nM

Structure (SMILES): CC(C)c1cnn2ccc(-c3ccnc(Nc4ccc(C(=O)N5CCC(O)C5)cc4)n3)cc12 (centres unmarked) [compound 150]
- IC50 ([1]; CDK4/CyclinD1, 200 μM ATP): < 10 nM
- IC50 ([2]; CDK2/CyclinE1, 100 μM ATP): < 10 nM

Structure (SMILES): CC(C)c1cnn2ccc(-c3ccnc(Nc4ccc(C(=O)N5CCC(N(C)C)C5)cc4)n3)cc12 (centres unmarked) [compound 151]
- IC50 ([1]; CDK4/CyclinD1, 200 μM ATP): < 10 nM
- IC50 ([2]; CDK2/CyclinE1, 100 μM ATP): < 10 nM

Structure (SMILES): CC(C)c1cnn2ccc(-c3ccnc(Nc4ccc(C(=O)N5CCC(N(C)C)C5)cc4F)n3)cc12 (centres unmarked) [compound 152]
- IC50 ([1]; CDK4/CyclinD1, 200 μM ATP): 10 to 100 nM
- IC50 ([2]; CDK2/CyclinE1, 100 μM ATP): 10 to 100 nM

Structure (SMILES): CC(C)c1cnn2ccc(-c3ccnc(Nc4ccc(C(=O)N5CC(O)C5)cc4)n3)cc12 [compound 153]
- IC50 ([1]; CDK4/CyclinD1, 200 μM ATP): < 10 nM
- IC50 ([2]; CDK2/CyclinE1, 100 μM ATP): < 10 nM

Structure (SMILES): CC(C)c1cnn2ccc(-c3ccnc(Nc4ccc(C(=O)N5CC(N(C)C)C5)cc4)n3)cc12 [compound 154]
- IC50 ([1]; CDK4/CyclinD1, 200 μM ATP): < 10 nM
- IC50 ([2]; CDK2/CyclinE1, 100 μM ATP): < 10 nM

Structure (SMILES): CC(C)c1cnn2ccc(-c3ccnc(Nc4ccc(N5CCC(N(C)C)CC5=O)cc4F)n3)cc12 (centres unmarked) [compound 180]
- IC50 ([1]; CDK4/CyclinD1, 200 μM ATP): < 10 nM
- IC50 ([2]; CDK2/CyclinE1, 100 μM ATP): < 10 nM

Structure (SMILES): CN(C)C1CCN(c2ccc(Nc3nccc(-c4ccn5ncc(C(C)(C)C)c5c4)n3)c(F)c2)C(=O)C1 (centres unmarked) [compound 181]
- IC50 ([1]; CDK4/CyclinD1, 200 μM ATP): < 10 nM
- IC50 ([2]; CDK2/CyclinE1, 100 μM ATP): < 10 nM

Structure (SMILES): Cc1nn2ccc(-c3ccnc(Nc4ccc(S(N)(=O)=O)nc4)n3)cc2c1C(C)C [compound 182]
- IC50 ([1]; CDK4/CyclinD1, 200 μM ATP): 10 to 100 nM
- IC50 ([2]; CDK2/CyclinE1, 100 μM ATP): < 10 nM

Structure (SMILES): Cc1cc(N2CCNCC2=O)ccc1Nc1nccc(-c2ccn3ncc(C(C)C)c3c2)n1 [compound 186]
- IC50 ([1]; CDK4/CyclinD1, 200 μM ATP): 10 to 100 nM
- IC50 ([2]; CDK2/CyclinE1, 100 μM ATP): < 10 nM

Structure (SMILES): CC(C)c1cnn2ccc(-c3ccnc(Nc4cccc(N5CCNCC5=O)c4)n3)cc12 [compound 187]
- IC50 ([1]; CDK4/CyclinD1, 200 μM ATP): 10 to 100 nM
- IC50 ([2]; CDK2/CyclinE1, 100 μM ATP): 10 to 100 nM
